The text below walks through data of patent publication US6743940B2, “4-aminobut-2-ynecarboxylic acid derivatives” (Ciba Specialty Chemicals Corporation, priority 2000, dated 2004).

Read-outs that look alike come from different tables or passages of the source. A value given as a limit tells only on which side of the number the result lay.

Common to all, as to assay: Minimum Inhibitory Concentration (MIC) in the agar incorporation test
Holding throughout (type): cell-based

For test [1], the system named is Pseudomonas aeruginosa CIP A-22. To be noted: CIPA22, Table 1, casein-soybean flour-peptone agar, 24 hours at 37° C., dilution series 1000 ppm to 10 ppm. The method, then:
(§1) Determination of the Minimum Inhibitory Concentration (MIC) in the Agar Incorporation Test (MIC Test) [table] Test Principle 0.3 ml of each dilution step is mixed with 15 ml of still liquid nutrient medium. After the nutrient medium has solidified, 10 μl of each of the following organism dilutions of the test strains in 0.85% NaCl solution is dotted onto the agar medium: [table] The plates are incubated for 24 hours at 37° C. (A. niger 3 days at 28° C.) and then the highest dilution (lowest concentration) of the test substance at which no more growth is observed (corresponds to the MIC) is determined.

Test [2] has as its system Candida albicans ATCC 10231. The note with it: ATCC10231, Table 1, casein-soybean flour-peptone agar, 24 hours at 37° C., dilution series 1000 ppm to 10 ppm. The method, then: as §1
The subject of test [3] is Escherichia coli NCTC 8196. The note with it: NCTC8196, Table 1, casein-soybean flour-peptone agar, 24 hours at 37° C., dilution series 1000 ppm to 10 ppm. The method, then: as §1
Test [4] relates to Staphylococcus aureus ATCC 9144. The note with it: 24 hours at 37° C. How it is done:
as §1

Test [5] relates to Aspergillus niger ATCC 6275. To be noted: ATCC6275, 72 h, 3 days at 28° C. The method, then:
as §1

The mark [6] stands for this setting: ATCC9144, Table 2, MIC test, read-out: Further microbiological test results, Staphylococcus aureus ATCC 9144.
The mark [7] stands for this setting: Table 2, MIC test, read-out: Further microbiological test results, Aspergillus niger ATCC 6275.

Take `COC(=O)CC#CCN(C)c1ccccc1` [Compound of formula (101), 4-(N-methyl-phenylamino)-but-2-yne-carboxylic Acid Methyl Ester]: the MIC is more than 1000 µg/mL in test [1]; 62.5 µg/mL in test [2]; 125 µg/mL in test [3]; 62.5 µg/mL in test [4] (ATCC9144, Table 1, casein-soybean flour-peptone agar, dilution series 1000 ppm to 10 ppm, read-out: Minimum Inhibitory Concentration (MIC), Staphylococcus aureus ATCC 9144); 62.5 µg/mL in test [5] (Table 1, Sabouraud 4% glucose-agar, dilution series 1000 ppm to 10 ppm, read-out: Minimum Inhibitory Concentration (MIC), Aspergillus niger ATCC 6275).

`CCCCCN(CC#CC(=O)OC)c1ccccc1` [Compound of formula (110)]: the MIC turned out to be 63 µg/mL in test [4] (setting [6]) and 125 µg/mL in test [5] (setting [7]).

On to `CCCN(CC#CC(=O)OC)c1cccc(OC)c1` [Compound of formula (108)], for which the results for the MIC in test [4] (setting [6]) and in test [5] (setting [7]) were 63 µg/mL and 125 µg/mL, respectively.

Turning to `CCCCN(CC#CC(=O)OC)c1ccccc1` [Compound of formula (107)], the MIC in test [4] (setting [6]) and in test [5] (setting [7]) was 63 µg/mL in each case.

`CCOC(=O)C#CCNc1ccccc1` [Compound of formula (116)]: the MIC in test [4] (setting [6]) and in test [5] (setting [7]) was 125 µg/mL each time.

Take `CCCN(CC#CC(=O)OCC)c1cccc(OC)c1` [Compound of formula (109)]: the MIC in test [4] (setting [6]) was 1000 µg/mL.

`CCCCCN(CC#CC(=O)OC)c1cccc(OC)c1` [Compound of formula (112)]: the MIC in test [4] (setting [6]) turned out to be 63 µg/mL.

As to `CCN(CC#CC(=O)OC)c1cccc(C)c1` [Compound of formula (115)], the MIC in test [5] (setting [7]) came to 8 µg/mL.

`CCOC(=O)C#CCNc1ccc(OC)cc1` [Compound of formula (117)]: the MIC in test [4] (setting [6]) and in test [5] (setting [7]) was 500 µg/mL each time.

Consider `CCCCN(CC#CC(=O)OC)c1cccc(C)c1` [Compound of formula (113)], for which the MIC in test [4] (setting [6]) stood at 125 µg/mL.

For the molecule `COC(=O)C#CCNc1ccc(C)cc1` [Compound of formula (118)], the MIC in test [4] (setting [6]) and in test [5] (setting [7]) was 125 µg/mL throughout.

As for `CCN(CC#CC(=O)OC)c1ccc(OC)cc1` [Compound of formula (114)], the MIC in test [4] (setting [6]) and in test [5] (setting [7]) was 60 µg/mL throughout.

Take `CCCN(CC#CC(=O)OC)c1ccc(OC)cc1` [Compound of formula (111)]: the MIC in test [4] (setting [6]) worked out at 63 µg/mL.

Consider `CCCN(CC#CC(=O)OC)c1cccc(C)c1` [Compound of formula (106)], for which the MIC in test [4] (setting [6]) and in test [5] (setting [7]) was 125 µg/mL in each case.
